The source of these data is the supplement of paper PMC7224384.

Assay [1] has as its system MDA-MB-453. Nature of the assay: drug sensitivity score (DSS), single agent (DSS (weighted AUC score)); higher = more sensitive (stronger viability decrease); extreme values may be limits of the assay. Conditions: BLU9931 0 nM; 72 h. An outline of the steps: (§1)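 Compounds from the FIMM Oncology set were predispensed in singlicate at five 10-fold dilutions (10,000-fold range) on 384-well plates. Each well then received 2000 MDA-MB-453 cells in medium with or without an FGFR4 inhibitor (100 nM final) and was kept at 37 °C, 5% CO2. Cellular ATP was read with CellTiterGlo 2.0 after 72 h and normalised per plate to percent viability from control wells. The drug sensitivity score is a weighted area under a four-parameter logistic fit.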

In assay [2] the test system is MDA-MB-453. Nature of the assay: drug sensitivity score (DSS), in combination with BLU9931 (DSS (weighted AUC score)); higher = more sensitive (stronger viability decrease); extreme values may be limits of the assay. Conditions: BLU9931 100 nM; 72 h. In short, it runs like this:
as §1

Turning to `O=C(O)c1ccc(CN2CCC(CN[C@@H]3C[C@H]3c3ccccc3)CC2)cc1`, the drug sensitivity score came to 0.3 in assay [1] and 0 in assay [2].
The like results for `Cc1cnc(-c2ccccc2C(C)C)nc1NCc1ccc(-n2ccnn2)cc1` [ML323] were, in that order, 0.4 and 0.
For `Cc1cc(Nc2cc(N3CCN(C)CC3)nc(Sc3ccc(NC(=O)C4CC4)cc3)n2)n[nH]1` [Tozasertib], in that order: 2.5 and 0.
Turning to `COc1cccc(OCCCN)c1-c1cc(Nc2cnc(C#N)cn2)n[nH]1` [Prexasertib], the drug sensitivity score in assay [1] was 28; in assay [2], 23.6.
`O=C(CCCCCCC(=O)Nc1ccccc1)NO` [Vorinostat]: the drug sensitivity score was found to be 16.4 in assay [1] and 15.6 in assay [2].
For `COc1cc2c(NC3CCN(C(C)C)CC3)nc(N3CCC(F)(F)CC3)nc2cc1OCCCN1CCCC1` [UNC0642], in that order: 2.1 and 1.4.
For `CN[C@@H](C)C(=O)N[C@H]1CN(C(=O)CC(C)C)CC[C@H]2CC[C@@H](C(=O)NC(c3ccccc3)c3ccccc3)N2C1=O` [AT-406], in that order: 5.1 and 5.1.
The like results for `CO[C@H]1C[C@@H]2CC[C@@H](C)[C@@](O)(O2)C(=O)C(=O)N2CCCC[C@H]2C(=O)O[C@H]([C@H](C)C[C@@H]2CC[C@@H](OC(=O)C(C)(CO)CO)[C@H](OC)C2)CC(=O)[C@H](C)/C=C(\C)[C@@H](O)[C@@H](OC)C(=O)[C@H](C)C[C@H](C)/C=C/C=C/C=C/1C` [Temsirolimus] were, in that order, 10.3 and 14.8.
Take `CNC(=O)c1ccc(N2C(=S)N(c3cnc(C#N)c(C(F)(F)F)c3)C(=O)C23CCC3)cc1F` [Apalutamide]: the drug sensitivity score in assay [1] and in assay [2] was 0 in each case.
For `COC(=O)c1ccc([C@H]2c3[nH]c4ccccc4c3C[C@H](C(=O)OC)N2C(=O)CCl)cc1` [RSL3], the drug sensitivity score in assay [1] is 0.6; in assay [2], 0.8.
For `Cc1cccc(-c2nn3c(c2-c2ccnc4ccc(C(N)=O)cc24)CCC3)n1` [Galunisertib], in that order: 0 and 0.
For `CO[C@H]1CC[C@H](N2C(=O)CNc3ncc(-c4ccc(C(C)(C)O)nc4)nc32)CC1` [CC-223], in that order: 6.1 and 6.
The like results for `N[C@@H]1CCCN(c2c(/C=C3\SC(=O)NC3=O)cccc2-c2ccccc2)C1` [AZD1208] were, in that order, 0.3 and 0.1.
Regarding `O=C1CN2Cc3c(ccc(Cl)c3Cl)N=C2N1` [Anagrelide], the drug sensitivity score in assay [1] and in assay [2] was 0 throughout.
On to `COc1cc(N2CCC(N3CCN(C)CC3)CC2)ccc1Nc1ncc(Cl)c(Nc2ccccc2P(C)(C)=O)n1` [Brigatinib], for which the drug sensitivity score in assay [1] was 2.4; in assay [2] it was 2.
The like results for `CC1=C(/C=C/C(C)=C/C=C/C(C)=C/C(=O)O)C(C)(C)CCC1` [Tretinoin] were, in that order, 0 and 0.
In the case of `Cn1cnc2c(F)c(Nc3ccc(Br)cc3Cl)c(C(=O)NOCCO)cc21` [Selumetinib], the drug sensitivity score in assay [1] and in assay [2] was 0.7 in each case.
With `C=CCc1cccc(/C=N/NC(=O)CN2CCN(Cc3ccccc3)CC2)c1O` [PAC-1], the drug sensitivity score in assay [1] is 4.4; in assay [2], 4.9.
Regarding `C[C@H](Nc1ncnc2[nH]cnc12)c1cc2ccc(F)cc2nc1-c1ccccn1` [AMG319], the drug sensitivity score in assay [1] was determined as 1.1; in assay [2] it was 0.3.
In the case of `Nc1ncn([C@@H]2O[C@H](CO)[C@@H](O)[C@H]2O)c(=O)n1` [Azacitidine], the values for the drug sensitivity score in assay [1] and in assay [2] were 0.5 and 0.4, respectively.
The like results for `NC(=O)N1CCC(CC(=O)N2CCC([C@H]3c4ncc(Br)cc4CCc4cc(Cl)cc(Br)c43)CC2)CC1` [Lonafarnib] were, in that order, 0 and 0.
For `CC1(C)CCC(CN2CCN(c3ccc(C(=O)NS(=O)(=O)c4ccc(NCC5CCOCC5)c([N+](=O)[O-])c4)c(Oc4cnc5[nH]ccc5c4)c3)CC2)=C(c2ccc(Cl)cc2)C1` [Venetoclax], in that order: 0 and 0.
For `CN1CCc2c(c3ccccc3n2Cc2ccc(C(=O)NO)cc2)C1` [Tubastatin A], in that order: 4.1 and 2.1.
Turning to `COc1ccc(CCc2nc3cc(-c4c(C)noc4C)ccc3n2C[C@H](C)N2CCOCC2)cc1Cl` [SGC-CBP30], the drug sensitivity score is 9 in assay [1] and 9.1 in assay [2].
For `CCn1c(C(=O)N(C2CC2)C2CC2)cc2c3c(ncn3C)c(Nc3cc(C)n(C)n3)nc21`, in that order: 0 and 0.
For `Cc1cc(C(C)Nc2ccccc2)c2nc(N3CCOCC3)cc(=O)n2c1` (centres undefined) [TGX-221], in that order: 2.6 and 3.2.
For the molecule `C[C@@H]1C=C2C(=O)O[C@@H]3CC[C@H](C1)[C@]23O` [Galiellalactone], the drug sensitivity score in assay [1] amounted to 7.4; in assay [2] it was 7.7.
The like results for `NC(=O)NO` [Hydroxyurea] were, in that order, 2.3 and 1.6.
For `CCc1c2c(nc3ccc(O)cc13)-c1cc3c(c(=O)n1C2)COC(=O)[C@]3(O)CC` [SN-38], in that order: 28.8 and 26.2.
For `CC1(C)CNc2cc(NC(=O)c3cccnc3NCc3ccncc3)ccc21` [Motesanib], in that order: 1 and 0.3.
Consider `Cc1nc(=O)c2cc(CN(C)c3ccc(C(=O)N[C@@H](CCC(=O)O)C(=O)O)s3)ccc2[nH]1` [Raltitrexed], for which the drug sensitivity score in assay [1] was 5.3; in assay [2], 3.2.
Consider `CCS(=O)(=O)N1CCN(c2ccc(Nc3ncc(C(N)=O)c(NC4CC4)n3)cc2)CC1` [Cerdulatinib], for which the figures for the drug sensitivity score in assay [1] and in assay [2] were 4.4 and 0.3, respectively.
The like results for `C[C@H]1CNCCCN1S(=O)(=O)c1cccc2cncc(F)c12` [Ripasudil] were, in that order, 0 and 0.1.
For `COc1cc2/c(=N/c3ccc(Br)cc3F)nc[nH]c2cc1OCC1CCN(C)CC1` [Vandetanib], in that order: 0 and 0.
The like results for `COc1ccc(-c2nc(N3CCOCC3)c3sc(CN(C)c4ncc(C(=O)NO)cn4)cc3n2)cn1` [CUDC-907] were, in that order, 38.8 and 40.
As for `COc1cc(Nc2c(C#N)cnc3cc(OCCCN4CCN(C)CC4)c(OC)cc23)c(Cl)cc1Cl` [Bosutinib], the drug sensitivity score in assay [1] is 5; in assay [2], 4.6.
For `CC(C)[C@H]1C(=O)N[C@@H](CCCNC(=N)N)C(=O)NCC(=O)N[C@@H](CC(=O)O)C(=O)N[C@H](Cc2ccccc2)C(=O)N1C` [Cilengitide], in that order: 0 and 0.
